{"source": "patent US6521764B1", "about": "“Process for the preparation of fumagillin” (Sanofi-Synthelabo, priority 1999, dated 2003)", "key": {"[1]": {"experiment": "2-week stability study of Fumagillin samples obtained by various methods, Fumagillin content by HPLC before and after stressing", "type": "physicochemical", "conditions": "for HPLC Assay, After 2 weeks at 40° C., ambient humidity / HPLC Assay, Initial: 3 equivalent acetic acid; for HPLC Assay, Initial: before stressing", "procedure": "We carried out a 2-week stability study at 40 OC , ambient humidity, of selected samples obtained by various methods. The Fumagillin content of the samples was measured by HPLC before and after the stressing."}, "[2]": {"conditions": "at -80 °C; cited from earlier work"}, "[3]": {"conditions": "sample liberated from methanol, crude product"}, "[4]": {"conditions": "sample liberated from methanol-dichloromethane 5:1, crude product"}, "[5]": {"conditions": "sample liberated from toluene, crude product"}, "[6]": {"conditions": "sample liberated in aqueous medium, followed by extraction with dichloromethane, concentration and crystallization in methanol"}}}
{"smiles": "CO[C@@H]1[C@H](OC(=O)/C=C/C=C/C=C/C=C/C(=O)O)CC[C@]2(CO2)[C@H]1[C@@]1(C)O[C@@H]1CC=C(C)C", "note": "[Fumagillin]", "values": [{"measurement": "HPLC Assay, After 2 weeks at 40° C., ambient humidity", "setting": "[1]; [3]", "result": 85.1, "unit": "%"}, {"measurement": "HPLC Assay, Initial", "setting": "[1]; [3]", "result": 97.6, "unit": "%"}, {"measurement": "HPLC Assay, After 2 weeks at 40° C., ambient humidity", "setting": "[1]; [4]", "result": 49.9, "unit": "%"}, {"measurement": "HPLC Assay, Initial", "setting": "[1]; [4]", "result": 96.3, "unit": "%"}, {"measurement": "HPLC Assay, After 2 weeks at 40° C., ambient humidity", "setting": "[1]; [5]", "result": 61.0, "unit": "%"}, {"measurement": "HPLC Assay, Initial", "setting": "[1]; [5]", "result": 92.6, "unit": "%"}, {"measurement": "HPLC Assay, After 2 weeks at 40° C., ambient humidity", "setting": "[1]; [6]", "result": 54.9, "unit": "%"}, {"measurement": "HPLC Assay, Initial", "setting": "[1]; [6]", "result": 96.9, "unit": "%"}, {"measurement": "Stability compared with samples obtained by other methods", "setting": "[1]; samples obtained by the alcoholic method, 2 weeks at 40 °C, ambient humidity", "result": "considerably more stable"}, {"measurement": "Stability on storage", "setting": "[2]", "result": "stable"}]}
